{"source": "patent US20130225611A1", "about": "“Compositions and Methods for Reducing Cancer Cell Proliferation and Modulating Importin-Beta Function” (THE REGENTS OF THE UNIVERSITY OF CALIFORNIA, priority 2011, published 2013)", "key": {"[1]": {"test_system": "spindle assembly around sperm chromosomes", "assay": "spindle assembly in metaphase-arrested Xenopus egg extracts", "parameters": "species or system Xenopus laevis", "details": "100 μM importazole", "description": "In order to determine whether importazole also disrupts mitosis, importazole was first tested in metaphase-arrested Xenopus egg extracts, which rely heavily on a RanGTP gradient for spindle assembly around sperm chromosomes. […] The effect was similar to that of adding a truncated importin-β (amino acids 71-876), a version that no longer binds to RanGTP and therefore sequesters its cargoes. […] Thus, importazole caused dramatic effects on spindle assembly consistent with the known role of the importin-β/RanGTP pathway in the Xenopus egg extract system, and is not a general microtubule inhibitor.\nXenopus laevis egg extracts were prepared as described by Hannak et al. (2006) Nat. Protoc. 1:2305-2314. For in vitro spindle assembly, Xenopus laevis sperm DNA was added to egg extracts supplemented with rhodamine-labeled tubulin. Asters were formed by addition of 5% DMSO. DNA was stained with Hoechst dye. The formation of microtubule-based structures was assessed using epifluorescence microscopy after a 30-minute room temperature incubation. In vitro microtubule polymerization and pelleting assays were performed by incubating 25 μM bovine tubulin, 1 mM GTP, and 5% DMSO in BRB80 buffer (80 mM PIPES, 1 mM MgCl2, 1 mM EGTA, pH 6.8) at 37° C. for 30 minutes. Polymerized microtubules were pelleted through a sucrose cushion, resuspended, and analyzed by SDS PAGE."}, "[2]": {"test_system": "nuclear import mediated by transportin", "assay": "nuclear import of M9-YFP in permeabilized HeLa cells", "format": "cell-based, human", "details": "permeabilized HeLa cells plus Xenopus egg extract"}}, "data": [{"molecule": "CC(Nc1nc(N2CCCC2)nc2ccccc12)c1ccccc1", "note": "(centres unmarked) [importazole, (1-phenyl-ethyl)-(2-pyrrolidin-1-yl-quinazolin-4-yl)-amine]", "values": [{"measurement": "sperm nuclei at which normal bipolar microtubule structures were prevented from forming", "setting": "[1]", "value": 80, "unit": "%"}, {"measurement": "transportin-mediated nuclear import (M9-YFP)", "setting": "[2]", "value": "did not block nuclear import"}]}]}
